{"source": "paper PMC7866854", "about": "“Pseudo-Dipeptide Bearing α,α-Difluoromethyl Ketone Moiety as Electrophilic Warhead with Activity against Coronaviruses” (International Journal of Molecular Sciences, 2021)", "key": {"SARS-CoV-2 M^pro": {"tested_on": "SARS-CoV-2 M^pro", "settings": "read-out: Exp. EC50; listed under SARS-CoV-2 Mpro; cited from earlier work"}, "[1]": {"target": "Anopheles gambiae acetylcholinesterase (AgAChE)", "settings": "read-out: IC50, AgAChE inhibitor; cited from earlier work"}, "[2]": {"target": "bovine pancreatic α-chymotrypsin", "set-up": "method as in PMID 2353815, PMID 3527255", "settings": "read-out: Ki, α-chymotrypsin inhibitor; cited from earlier work"}, "HIV-1 protease": {"target": "HIV-1 protease", "set-up": "method as in doi:10.1039/c39910000110", "settings": "read-out: Ki, HIV protease inhibitor; cited from earlier work"}, "SARS-CoV M^pro": {"tested_on": "SARS-CoV M^pro", "settings": "read-out: IC50, SARS-CoV Mpro inhibitor; cited from earlier work"}, "hCoV-229E": {"tested_on": "hCoV-229E", "assay": "CPE-based antiviral assay (CellTiter-Glo cell viability as surrogate of CPE) in MRC5 cells infected with hCoV-229E", "settings": "Human coronavirus 229E; for EC50: read-out: EC50, inhibition of hCoV-229E replication"}, "in vitro": {"assay": "in vitro", "settings": "human"}}, "note": "Read-outs that look alike come from different tables or passages of the source.", "data": [{"smiles": "Cc1cc(C(=O)N[C@@H](C)C(=O)N[C@H](C(=O)N[C@@H](CC(C)C)C(=O)N[C@H](/C=C\\C(=O)OCc2ccccc2)C[C@@H]2CCNC2=O)C(C)C)no1", "note": "[N3]", "values": [{"measurement": "EC50", "setting": "SARS-CoV-2 M^pro", "result": "16.8 ± 1.7", "unit": "µM"}]}, {"smiles": "CC(C)(C)c1cccc(C(=O)C(F)F)c1", "note": "[compound 1]", "values": [{"measurement": "IC50", "setting": "[1]", "result": 0.00605, "unit": "µM"}]}, {"smiles": "CC(C)n1cc(C(=O)C(F)F)cn1", "note": "[compound 2]", "values": [{"measurement": "IC50", "setting": "[1]", "result": 0.802, "unit": "µM"}]}, {"smiles": "CC(=O)NC(CC(C)C)C(=O)NC(Cc1ccccc1)C(=O)C(F)F", "note": "(stereo not drawn) [compound 4, Ac-Leu-Phe-CHF2]", "values": [{"measurement": "Ki", "setting": "[2]", "result": 25, "unit": "µM"}]}, {"smiles": "CC(C)C(NC(=O)OCc1ccccc1)C(=O)NC(Cc1ccccc1)C(=O)C(F)(F)C(Cc1ccccc1)NC(=O)C(NC(=O)OCc1ccccc1)C(C)C", "note": "(stereo not shown) [compound 6]", "values": [{"measurement": "Ki", "setting": "HIV-1 protease", "result": 0.0001, "unit": "µM"}]}, {"smiles": "CC(C)CC(NC(=O)OCc1ccccc1)C(=O)NC(Cc1ccccc1)C(O)(O)C(F)(F)F", "note": "(stereo not drawn) [compound 7, Z-Leu-Phe-CF3]", "values": [{"measurement": "IC50", "setting": "SARS-CoV M^pro", "result": 10, "unit": "µM"}]}, {"smiles": "CC(C)CC(NC(=O)OCc1ccccc1)C(=O)NC(CCc1ccccc1)C(O)(O)C(F)F", "note": "(stereo not shown) [compound 8, Z-Leu-Homophe-CHF2]", "values": [{"measurement": "EC50", "setting": "hCoV-229E; MRC5, 72 h", "result": "12.9 ± 1.22", "unit": "µM"}, {"measurement": "EC90", "setting": "hCoV-229E; MRC5 cells, 100 PFU/well, 72 h p.i., CellTiter-Glo, read-out: EC90, inhibition of hCoV-229E replication", "result": "38.6 ± 0.67", "unit": "µM"}]}, {"smiles": "CCC(CC)COC(=O)[C@H](C)N[P@](=O)(OC[C@H]1O[C@@](C#N)(c2ccc3c(N)ncnn23)[C@H](O)[C@@H]1O)Oc1ccccc1", "note": "[remdesivir]", "values": [{"measurement": "CC50", "setting": "in vitro", "result": "> 10", "unit": "µM"}, {"measurement": "EC50", "setting": "hCoV-229E; MRC5 cells, 100 PFU/well, 72 h p.i., CellTiter-Glo", "result": "0.034 ± 0.0025", "unit": "µM"}]}]}
